From ChEMBL document CHEMBL1135071, “Di- and trisubstituted pyrazolo[1,5-a]pyridine derivatives: synthesis, dopamine receptor binding and ligand efficacy” (Bioorg Med Chem Lett, 2002)

Columns and labels:
D(4) dopamine receptor [1] = biological target: T1, D(4) dopamine receptor (Homo sapiens, UniProt P21917); experiment: In vitro binding affinity at human cloned dopamine receptor D4 stably expressed in CHO cells by [3H]spiperone displacement.; format: cell-based
T1 sequence (P21917 whole entry): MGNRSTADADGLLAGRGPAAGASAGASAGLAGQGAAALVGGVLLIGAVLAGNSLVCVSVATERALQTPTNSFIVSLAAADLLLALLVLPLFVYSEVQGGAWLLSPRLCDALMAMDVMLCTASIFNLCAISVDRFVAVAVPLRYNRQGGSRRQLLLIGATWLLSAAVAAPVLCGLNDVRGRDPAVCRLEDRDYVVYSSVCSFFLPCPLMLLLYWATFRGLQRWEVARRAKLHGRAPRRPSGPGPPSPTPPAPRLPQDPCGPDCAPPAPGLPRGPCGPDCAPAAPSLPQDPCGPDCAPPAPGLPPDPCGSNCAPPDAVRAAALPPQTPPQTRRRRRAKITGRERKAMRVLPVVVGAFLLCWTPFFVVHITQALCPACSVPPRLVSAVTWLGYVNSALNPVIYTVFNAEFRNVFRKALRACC

D(3) dopamine receptor = D(3) dopamine receptor (Homo sapiens, UniProt P35462); experiment: In vitro binding affinity at human cloned dopamine receptor D3 stably expressed in CHO cells by [3H]spiperone displacement.; format: cell-based
D(3) dopamine receptor, sequence (P35462 whole entry): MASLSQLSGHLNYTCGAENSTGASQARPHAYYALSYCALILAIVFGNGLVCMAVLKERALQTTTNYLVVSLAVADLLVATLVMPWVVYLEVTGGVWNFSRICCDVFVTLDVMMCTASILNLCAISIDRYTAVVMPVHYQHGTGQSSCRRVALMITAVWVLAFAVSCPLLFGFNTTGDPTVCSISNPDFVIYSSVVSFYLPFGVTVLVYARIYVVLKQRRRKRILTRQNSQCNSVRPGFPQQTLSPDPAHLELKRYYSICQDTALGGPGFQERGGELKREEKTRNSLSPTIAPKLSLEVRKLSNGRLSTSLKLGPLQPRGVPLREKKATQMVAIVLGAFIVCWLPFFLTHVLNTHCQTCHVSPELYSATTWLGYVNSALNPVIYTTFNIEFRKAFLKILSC

D(2) dopamine receptor [2] = biological target: T2, D(2) dopamine receptor (Homo sapiens, UniProt P14416); experiment: In vitro binding affinity at human cloned dopamine receptor D2 (long) stably expressed in CHO cells by [3H]-Spiperone displacement.; format: cell-based
T2 sequence (P14416 whole entry): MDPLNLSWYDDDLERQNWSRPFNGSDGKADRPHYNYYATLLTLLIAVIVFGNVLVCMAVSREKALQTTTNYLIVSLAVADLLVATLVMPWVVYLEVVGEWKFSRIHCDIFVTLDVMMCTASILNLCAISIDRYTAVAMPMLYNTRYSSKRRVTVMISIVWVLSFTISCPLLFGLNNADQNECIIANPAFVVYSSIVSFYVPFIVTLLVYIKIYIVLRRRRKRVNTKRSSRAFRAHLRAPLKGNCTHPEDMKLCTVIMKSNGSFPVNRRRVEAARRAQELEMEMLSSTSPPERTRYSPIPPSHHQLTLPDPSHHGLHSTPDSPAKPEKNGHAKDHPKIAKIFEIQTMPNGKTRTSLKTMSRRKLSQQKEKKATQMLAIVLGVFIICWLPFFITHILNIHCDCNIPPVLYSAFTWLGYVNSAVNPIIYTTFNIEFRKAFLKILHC

D(2) dopamine receptor [3] = biological target: T2, D(2) dopamine receptor; experiment: In vitro binding affinity at human cloned dopamine receptor D2 (short) stably expressed in CHO cells by [3H]spiperone displacement.; format: cell-based
D(4) dopamine receptor [4] = biological target: T1, D(4) dopamine receptor; experiment: Tested for the effective concentration against human D4.2 receptor in CHO 10001 cells established in mitogenesis assay; format: functional, cell-based
[5] = biological target: T3, D(4) dopamine receptor (Homo sapiens) (UniProt P21917); experiment: Intrinsic activity as rate of incorporation of [3H]thymidine in human D4.2 receptor established in mitogenesis assay relative to quinpirole; format: functional
T3 sequence (whole entry): T1 sequence (P21917 whole entry)

[6] = Compound was tested in vitro for its ability to compete with [3H]-ketanserin at 5-hydroxytryptamine 2 receptor in porcine brain homogenate; format: tissue-based
D(2) dopamine receptor [7] = biological target: T2, D(2) dopamine receptor; experiment: Binding affinity of compound was tested in vitro for its ability to compete with [3H]spiperone radioligand at cloned human Dopamine receptor D2L stably expressed in CHO cells; format: cell-based

Ki (D(4) dopamine receptor [1])	Ki (D(3) dopamine receptor)	Ki (D(2) dopamine receptor [2])	Ki (D(2) dopamine receptor [3])	EC50 (D(4) dopamine receptor [4])	Intrinsic activity [5]	Ki [6]	Ki (D(2) dopamine receptor [7])	Structure (SMILES)
0.02 µM	2.6 µM	28 µM	22 µM	–	–	–	–	OCc1ccc2c(CN3CCN(c4ccc(Cl)cc4)CC3)cnn2c1
0.087 µM	3.8 µM	14 µM	16 µM	–	–	–	–	Cc1nn2c(-c3ccc(F)cc3)cccc2c1CN1CCN(c2ccc(Cl)cc2)CC1
0.029 µM	5.7 µM	15 µM	15 µM	–	–	–	–	Fc1ccc(-c2cccc3c(CN4CCN(c5ccc(Cl)cc5)CC4)cnn23)cc1
0.0076 µM	0.84 µM	5.4 µM	2.8 µM	–	–	–	–	Clc1ccc(N2CCN(Cc3cnn4c(-c5ccccc5)cccc34)CC2)cc1
0.026 µM	0.27 µM	0.3 µM	0.12 µM	–	–	–	–	Cc1nn2c(N3CCN(Cc4ccccc4)CC3)cccc2c1CN1CCN(c2ccc(Cl)cc2)CC1
0.0015 µM	26 µM	–	45 µM	0.0015 µM	31%	0.18 µM	44 µM	N#Cc1cccc2c(CN3CCN(c4ccc(Cl)cc4)CC3)cnn12
0.0028 µM	2 µM	3.1 µM	2.8 µM	–	–	–	–	C[Si](C)(C)c1cccc2c(CN3CCN(c4ccc(Cl)cc4)CC3)cnn12
0.037 µM	3.1 µM	28 µM	24 µM	–	–	–	–	Cc1nn2c(-c3ccccc3)cccc2c1CN1CCN(c2ccc(Cl)cc2)CC1
0.18 µM	0.41 µM	0.64 µM	0.4 µM	–	–	–	–	Clc1ccc(N2CCN(Cc3cnn4c(N5CCN(Cc6ccccc6)CC5)cccc34)CC2)cc1
0.0026 µM	5.9 µM	9.5 µM	9.2 µM	–	–	–	–	O=Cc1cccc2c(CN3CCN(c4ccc(Cl)cc4)CC3)cnn12
0.0015 µM	17 µM	21 µM	25 µM	–	–	–	–	C#Cc1cccc2c(CN3CCN(c4ccc(Cl)cc4)CC3)c(C)nn12
–	3.8 µM	4.9 µM	5 µM	–	–	–	–	Cc1cccc2c(CN3CCN(c4ccc(Cl)cc4)CC3)cnn12
0.11 µM	> 100 µM	56 µM	79 µM	–	–	–	–	OCc1cccn2ncc(CN3CCN(c4ccc(Cl)cc4)CC3)c12
0.0023 µM	21 µM	–	58 µM	0.012 µM	26%	1 µM	59 µM	Cc1nn2c(C#N)cccc2c1CN1CCN(c2ccc(Cl)cc2)CC1
–	4.6 µM	3.7 µM	6.2 µM	–	–	–	–	C#Cc1cccc2c(CN3CCN(c4ccc(Cl)cc4)CC3)cnn12
–	9.4 µM	13 µM	12 µM	–	–	–	–	Cc1cccn2ncc(CN3CCN(c4ccc(Cl)cc4)CC3)c12
